Point of comparison: `O=C(O)c1cncn1C(c1ccccc1)C1CCCCC1` (stereo unspecified), melting point 250 °C. Against it:
- Cc1ccc(C(=O)c2cc3cc(Br)ccc3n2C)cc1 — lower, 169 to 171 °C
- COC1=CCC(OC)(OC)C=C1CCc1ccc(OC)cc1C — lower, 71 to 72 °C
- CC(Cc1ccccc1)(NC(=O)OC1CCCCc2ccccc21)C(=O)NCCCCCCCCC(N)=O (stereo unspecified) — lower, 98 to 100 °C
- O=C1O[C@@H](CO)[C@H]2CCc3cc(O)ccc3N12 (relative stereo) — the same, 250 °C
- O=C(c1cc(Br)ccc1[N+](=O)[O-])C(Br)C(Br)c1ccc(Br)cc1 (stereo unspecified) — lower, 200 to 201 °C
- COC(=O)Cc1cn(-c2ccccc2)nc1OCc1ccc(OCc2nc(-c3ccccc3)oc2C)cc1 — lower, 113 to 114 °C
- CCCCCCCCCCCOc1cc(C(=O)O)ccc1CO — lower, 82 to 83 °C
- Cc1c[nH]c2c(C=O)cccc12 — lower, 77 to 79 °C
- CCn1c(=O)c2[nH]c(/C=C/c3ccccc3OC)nc2n(CC)c1=O — higher, > 270 °C
- Cc1ncc(CN2CC=C(c3ccc(F)cc3)CC2)c(N)n1 — lower, 176 to 178 °C
- Cc1cc(C#N)cc(CNc2c(NC(C)(C)C)c(=O)c2=O)c1 — higher, 253 to 255 °C
- CCOC(=O)c1c(O)n(CC)c2cc(-c3ccncc3)ccc2c1=O — lower, 153 to 157 °C
- N#CCc1c[nH]c2ccc(OCc3ccccc3)c(Cl)c12 — lower, 130 to 132 °C
- COc1cc2c(-c3cc4cccnc4[nH]3)cn(C)c2cc1O — the same, 250 °C
- O=C(O)CC(NC(=O)OCc1ccccc1)C(=O)CNS(=O)(=O)CCc1ccccc1 (stereo unspecified) — lower, 100 to 101 °C
- CCOc1cc(C)ccc1S(N)(=O)=O — lower, 136 to 137 °C
- CC(C)(C)c1cc(-n2nc3ccc(Sc4ccccc4)cc3n2)c(O)c(C(C)(C)C)c1 — lower, 132 to 134 °C
- O=CC=C(c1cccc([N+](=O)[O-])c1)c1cccc([N+](=O)[O-])c1 — lower, 131 to 136 °C
- O=C(O)COc1ccc2c(-c3ccco3)noc2c1Cl — lower, 230 to 233 °C
- COCC#Cc1ccc(C(CC2CCCC2)C(=O)O)cc1 (stereo unspecified) — lower, 82 to 85 °C
- N#Cc1c(N2CCCSCC2)cc[nH]c1=S — higher, 265 to 270 °C
- COc1ccc(NC(=O)c2nnn(Cc3ccc(F)cc3)c2C)cc1OC — lower, 120 °C
- CCCCc1cc2cccnc2[nH]1 — lower, 46 to 47 °C
- CCCc1c(OCCCCC2CC(=O)c3ccc(OCC(=O)O)c(CCC)c3O2)ccc(C(C)=O)c1O (stereo unspecified) — lower, 164 to 167 °C
- N#Cc1ccccc1N1CCN(CCCCCC(=O)O)CC1 — lower, 120 °C
- CCOCCCN(C)Cc1ccc(NC(=O)C2=Cc3cc(-c4ccc(C)cc4)ccc3OCC2)cc1 — lower, 119 to 122 °C
- N#CC1=C(C#N)Sc2nc3ccccc3nc2S1 — higher, > 300 °C
- Oc1nsc(SCc2ccc(Cl)cc2Cl)n1 — lower, 134 °C
- CCc1noc(-c2ncn(-c3cccc(Cl)c3)c2COC)n1 — lower, 125 to 126 °C
- CCOC(=O)c1nnc(-c2ccccc2)cc1-c1cccc([N+](=O)[O-])c1 — lower, 121 to 122 °C
- c1ccc(-c2nc3cc(COc4ccc(CCCn5ccnc5)cc4)ccc3o2)cc1 — lower, 137 to 138 °C
- CC(C)(C)C(Cl)=NNc1ccc(Cl)cc1 — lower, 42 to 43 °C
- O=C(O)c1cc2c3cc(Br)c(Br)cc3n(Cc3ccccc3)c2s1 — higher, 269 to 273 °C
- CCCCN1CCCC1CNC(=O)c1cc(S(N)(=O)=O)cc2c1OC(C)C2 (stereo unspecified) — lower, 170 °C
- Nc1ncc(-c2cccnc2)cc1[N+](=O)[O-] — lower, 226 to 228 °C
- Nc1cc(SCc2ccc(F)cc2)nn1-c1c(Cl)cc(C(F)(F)F)cc1Cl — lower, 112 to 113 °C
- CCOP(=O)(OCC)C(O)=Cc1nn(-c2ccc(F)cc2)cc1-c1ccc(Cl)cc1 — lower, 96 to 98 °C
- CCNC1(C(N)=O)C=C2C(=Nc3ccccc32)C=N1 (stereo unspecified) — lower, 233 to 236 °C
- COC1(C)CCc2c(C)c(OC(C)=O)c(C)c(C)c2O1 (stereo unspecified) — lower, 71 to 72.5 °C
- CC(C)(C)OC(=O)N1CCC(Oc2cccc3[nH]ccc23)C1 (stereo unspecified) — lower, 164 to 165 °C

Source: a melting point compilation (Tetko et al.; mined from patent text by program, amines drawn as free bases though some values may be those of a salt)
